Data from patent US11465965B2, “Double-headed protease inhibitor” (UBE INDUSTRIES, LTD., priority 2017, dated 2022).
Where a name gives a salt, the structure may show the parent alone. Read-outs that look alike come from different tables or passages of the source. Each block holds one compound with its values, some of them ahead of it.

Key:
[1] = molecular target: T1, Human recombinant enteropeptidase (Homo sapiens, UniProt P98073); test: Human enteropeptidase inhibition test; format: biochemical; conditions: read-out: Inhibition rate (enteropeptidase); for inhibition at 0.001 µM: compound concentration 1 nM
T1 construct: purchased BIO Vision Inc. 7529-50
T1 sequence (P98073 whole entry): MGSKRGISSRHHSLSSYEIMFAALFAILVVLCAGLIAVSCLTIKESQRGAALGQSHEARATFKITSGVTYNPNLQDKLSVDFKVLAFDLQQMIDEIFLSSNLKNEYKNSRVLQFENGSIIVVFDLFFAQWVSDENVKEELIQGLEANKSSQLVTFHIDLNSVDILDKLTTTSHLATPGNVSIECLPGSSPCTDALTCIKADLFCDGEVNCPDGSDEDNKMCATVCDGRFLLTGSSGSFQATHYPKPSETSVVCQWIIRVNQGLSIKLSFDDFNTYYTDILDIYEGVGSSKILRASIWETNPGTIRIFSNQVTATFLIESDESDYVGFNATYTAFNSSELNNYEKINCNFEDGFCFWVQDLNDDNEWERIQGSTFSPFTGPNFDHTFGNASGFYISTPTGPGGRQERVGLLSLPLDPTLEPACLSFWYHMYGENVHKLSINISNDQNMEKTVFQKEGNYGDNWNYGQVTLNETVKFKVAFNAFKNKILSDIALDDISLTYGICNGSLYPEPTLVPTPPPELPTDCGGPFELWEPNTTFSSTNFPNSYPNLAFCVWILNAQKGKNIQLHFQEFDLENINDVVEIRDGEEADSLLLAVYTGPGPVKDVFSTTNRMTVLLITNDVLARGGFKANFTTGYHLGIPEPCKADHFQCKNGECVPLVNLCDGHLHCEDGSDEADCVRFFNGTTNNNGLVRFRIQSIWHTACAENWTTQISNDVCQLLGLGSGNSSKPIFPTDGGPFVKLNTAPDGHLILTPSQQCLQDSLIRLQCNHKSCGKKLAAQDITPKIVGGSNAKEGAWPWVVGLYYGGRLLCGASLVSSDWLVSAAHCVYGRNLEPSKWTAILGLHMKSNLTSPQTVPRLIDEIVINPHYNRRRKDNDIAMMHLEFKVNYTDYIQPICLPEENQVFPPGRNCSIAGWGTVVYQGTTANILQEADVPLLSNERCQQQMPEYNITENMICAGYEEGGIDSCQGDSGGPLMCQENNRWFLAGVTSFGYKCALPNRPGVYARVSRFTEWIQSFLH
Description: (Test Example 1): Human Enteropeptidase Inhibition Test
Human recombinant enteropeptidase (manufactured by BIO Vision Inc., catalog no.: 7529-50) was diluted with an assay buffer (50 mM tricine (pH8.0), 0.01 W/V % Tween 20, 10 mM CaCl2) to prepare an […] enzyme solution. Then, 5FAM-Abu-Gly-Asp-Asp-Lys-Ile-Val-Gly-Gly-Lys (CPQ2)-Lys-Lys-NH2 (manufactured by CHINESE PEPTIDE COMPANY, purity: 94.5) was diluted with the assay buffer to prepare a 1.5 μM substrate solution. Each test compound was dissolved into DMSO, then diluted with the assay buffer 100 times, and further appropriately diluted with an assay buffer comprising 1% DMSO to prepare each compound solution. 10 μL of the compound solution, 15 μL of the assay buffer, and 50 μL of the substrate solution were added to a 96 well black plate (manufactured by Thermo Fisher Scientific Inc., code no.: 9502867), mixed, then 25 μL of the enzyme solution was added thereto, and mixed to start the reaction. Fluorescence intensities at excitation wavelength 485 nm and fluorescence wavelength 535 nm were measured by using a fluorescence plate reader (Flex station 3) (Test compound addition group). Also, the same reaction as described above except for not adding each test compound was carried out (Test compound non-addition group). Additionally, the same reaction as described above except for not adding each test compound and the enzyme was carried out (Control group). Inhibition rate was calculated by the following equation using fluorescence intensity after 20 minutes of reaction start. Inhibition rate (%)=(1−(fluorescence intensity of Test compound addition group−fluorescence intensity of Control group)÷(fluorescence intensity of Test compound non-addition group−fluorescence intensity of Control group))×100

[2] = molecular target: T2, Human recombinant trypsin (Homo sapiens, UniProt P07477); test: Human trypsin inhibition test; format: biochemical; conditions: 20 minutes after reaction start, read-out: Inhibition rate (trypsin); for inhibition at 0.001 µM: compound concentration 1 nM; for inhibition at 0.01 µM: compound concentration 10 nM; for inhibition at 0.1 µM: compound concentration 100 nM
T2 construct: purchased Wako Pure Chemical Industries, Ltd. 206-17171
Description: (Test Example 2): Human Trypsin Inhibition Test
Human recombinant trypsin (manufactured by Wako Pure Chemical Industries, Ltd., code no.: 206-17171) was diluted with an assay buffer (0.1 M Tris-HCl (pH8.0), 0.15 M NaCl, 10 mM CaCl2, 0.05% Brij35) to prepare a 10 ng/mL enzyme solution. Then, Boc-Phe-Ser-Arg-MCA (manufactured by PEPTIDE INSTITUTE, INC., code no.: 3107-v) was diluted with the assay buffer to prepare a 40 μM substrate solution. Each test compound was dissolved into DMSO, then diluted with the assay buffer 100 times, and further appropriately diluted with an assay buffer comprising 1% DMSO to prepare each compound solution. 10 μL of the compound solution, 15 μL of the assay buffer, and 50 μL of the substrate solution were added to a 96 well black plate (manufactured by Thermo Fisher Scientific Inc., code no.: 9502867), mixed, and then 25 μL of the enzyme solution was added thereto, and mixed to start the reaction. Fluorescence intensities at excitation wavelength 355 nm and fluorescence wavelength of 460 nm were measured by using a fluorescence plate reader (Flex station 3) (Test compound addition group). Also, the same reaction as described above except for not adding each test compound was carried out (Test compound non-addition group). Additionally, the same reaction as described above except for not adding each test compound and the enzyme was carried out (Control group). Inhibition rate was calculated by the following equation using fluorescence intensity after 20 minutes of reaction start. Inhibition rate (%)=(1−(fluorescence intensity of Test compound addition group−fluorescence intensity of Control group)[…](fluorescence intensity of Test compound non-addition group−fluorescence intensity of Control group))×100

DIO mouse = test: Anti-obesity effect test using DIO mouse; format: in vivo; conditions: 336 h, DIO mice, vs vehicle group, read-out: Weight loss rate; for inhibition in vivo at 30 mg/kg: oral 30 mg/kg once daily for 2 weeks; for inhibition in vivo at 100 mg/kg: oral 100 mg/kg once daily for 2 weeks
Description: (Test Example 4): Anti-Obesity Effect Test Using DIO Mouse
Diet-induced obesity (DIO) mice (D-12492 diet, male, C57BL-DIO, 26 to 28-week old) were orally administered with a 0.5 W/V % methylcellulose suspension comprising each test compound (Compound administration group, 5 or 6 mice/group) or a 0.5 W/V % methylcellulose suspension (Compound non-administration group (Vehicle group), 6 mice/group) once daily for 2 weeks. Weight loss rate was calculated by the following equation. Weight loss rate (%) of each Compound administration group−(1−average weight at the last day of the test of each Compound administration group/average weight at the last day of the test of Vehicle group)×100

[3] = Rat pharmacokinetic (PK) test (plasma concentration after oral administration); conditions: male, SD
Description: Each test compound was suspended in a 0.5 W/V % methylcellulose 400 solution to prepare a suspension, and the resulting suspension was orally administered to a male SD rat of 7 to 8-week old (weight: 180 to 250 g). After 0.25, 0.5, 1, 2, 4, 8, and 24 hour(s) of the administration of each test compound, blood (EDTA-added blood) was collected from jugular vein under isoflurane inhalation anesthesia. […] To the resulting blood plasma was added acetonitrile, a mixed solvent of acetonitrile and water (1:1 (V/V)), or a mixed solvent of acetonitrile and 0.1 M hydrochloric acid (1:1 (V/V)), then the resulting mixture was mixed at 750 rpm for 3 minutes in a shaker, and subjected to centrifugal separation at 3700 rpm for 2 minutes in a centrifuge to remove proteins. The resulting sample was subjected to LC (liquid chromatography)/MS (mass spectrometry) measurement under the following measurement conditions.
Each compound concentration in blood plasma at each time of blood collection was calculated according to the internal standard method, and, area under the plasma concentration vs. time curve (AUCall (Area Under Curve)) was calculated according to the trapezoidal method.
The LC and MS systems used in the present test are as follows.
LC: LC20 or LC30 HPLC system manufactured by Shimadzu Corporation
Column: Phenomenex Kinetex C18 (50×2.1 mm, 2.6 μm)
Column temperature: 40° C.
Mobile phase A: aqueous solution with 0.1% formic acid, Mobile phase B: 50% acetonitrile/methanol solution with 0.1% formic acid

HFD-fed mouse = test: Fecal protein concentration-increasing test by single administration using HFD-fed mouse; format: in vivo; conditions: 24 h, HFD-fed mice, single oral dose 30 mg/kg, vs vehicle group, read-out: Ratio for an increase of protein concentration in feces
Description: (Test Example 3): Fecal Protein Concentration-Increasing Test by Single Administration Using HFD-Fed Mouse
High fat diet-fed (HFD-fed) mice (D-12492 diet, male, ICR, 6 week old) were orally administered with a 0.5 W/V % methylcellulose suspension comprising each test compound (Compound administration group, 4 or 5 mice/group) or a 0.5 W/V % methylcellulose suspension (Compound non-administration group (Vehicle group), 5, 6, or 7 mice/group), and whole feces of the day were collected. Dried feces were dissolved into a 0.5N aqueous sodium hydroxide solution, followed by centrifugation at 3500 rpm. Then each protein concentration in the resulting supernatant was determined (Lowry method), and the ratio for an increase of protein concentration in feces was calculated by the following equation using the protein concentration in feces contained in 1 g of feces (mg/g feces). Ratio for an increase of protein concentration in feces−(average protein concentration in feces of Compound administration group)[…](average protein concentration in feces of Compound non-administration group)

[4] = 20 minutes after reaction start
[5] = compound concentration 10 nM, 20 minutes after reaction start
[6] = compound concentration 100 nM, 20 minutes after reaction start

inhibition at 0.001 µM [1, 4]: ≥ 50%
inhibition at 0.01 µM [1, 5]: ≥ 50%
inhibition at 0.1 µM [1, 6]: ≥ 50%
inhibition at 0.001 µM [2]: ≥ 50%
inhibition at 0.01 µM [2]: ≥ 50%
inhibition at 0.1 µM [2]: ≥ 50%
AUC ([3]; 10 mg/kg): ≤ 100 ng·h/mL
Compound: N=C(N)Nc1ccc2c(c1)CCCOc1c(cccc1C(=O)N(CCOCCOCCN(C(=O)c1cccc3c1OCCCc1cc(NC(=N)N)ccc1C(=O)O3)C(CC(=O)O)C(=O)O)C(CC(=O)O)C(=O)O)OC2=O (stereo not drawn) [19-(b), 3,12-bis(10-guanidino-13-oxo-6,7,8,13-tetrahydrodibenzo[b,f][1,4]dioxecin-4-carbonyl)-6,9-dioxa-3,12-diazatetradecane-1,2,13,14-tetracarboxylic acid trifluoroacetate]
inhibition in vivo at 30 mg/kg (DIO mouse): ≥ 4%

inhibition at 0.001 µM [1, 4]: ≥ 50%
inhibition at 0.01 µM [1, 5]: ≥ 50%
inhibition at 0.1 µM [1, 6]: ≥ 50%
inhibition at 0.01 µM [2]: ≥ 50%
inhibition at 0.1 µM [2]: ≥ 50%
AUC ([3]; 9 mg/kg): ≤ 100 ng·h/mL
Compound: N=C(N)Nc1ccc(C(=O)Oc2ccc(COC(=O)N(CC(=O)O)[C@@H](CC(=O)O)C(=O)N[C@@H](CC(=O)O)C(=O)NCCOCCOCCOCCOCCNC(=O)[C@H](CC(=O)O)NC(=O)[C@H](CC(=O)O)N(CC(=O)O)C(=O)OCc3ccc(OC(=O)c4ccc(NC(=N)N)cc4)cc3)cc2)cc1 [15-(b), (4S,7S,26S,29)-4,7,26,29-tetrakis(carboxymethyl)-3,30-bis((4-((4-guanidinobenzoyl)oxy)benzyl)oxy)carbonyl)-5,8,25,28-tetraoxo-12,15,18,21-tetraoxa-3,6,9,24,27,30-hexaazadotriacontane-1,32-dioic acid trifluoroacetate]

inhibition at 0.01 µM [1, 5]: ≥ 50%
inhibition at 0.1 µM [1, 6]: ≥ 50%
inhibition at 0.01 µM [2]: ≥ 50%
inhibition at 0.1 µM [2]: ≥ 50%
AUC ([3]; 9 mg/kg): ≤ 100 ng·h/mL
Compound: N=C(N)Nc1ccc(C(=O)Oc2ccc(COC(=O)N(CCCCCCCCCCCCN(C(=O)OCc3ccc(OC(=O)c4ccc(NC(=N)N)cc4)cc3)C(CC(=O)O)C(=O)O)C(CC(=O)O)C(=O)O)cc2)cc1 (stereo not drawn) [11-(b), 2,2′-(1,20-bis(4-((4-guanidinobenzoyl)oxy)phenyl 3,18-dioxo-2,19-dioxa-4,17-diazaicosane-4,17-diyl)disuccinic acid trifluoroacetate]

inhibition at 0.001 µM [1, 4]: ≥ 50%
inhibition at 0.01 µM [1, 5]: ≥ 50%
inhibition at 0.1 µM [1, 6]: ≥ 50%
inhibition at 0.001 µM [2]: ≥ 50%
inhibition at 0.01 µM [2]: ≥ 50%
inhibition at 0.1 µM [2]: ≥ 50%
AUC ([3]; 10 mg/kg): ≤ 100 ng·h/mL
Compound: N=C(N)Nc1ccc(C(=O)Oc2cccc(C(=O)N(CCOCCN(C(=O)c3cccc(OC(=O)c4ccc(NC(=N)N)cc4)c3)[C@@H](CC(=O)O)C(=O)O)[C@@H](CC(=O)O)C(=O)O)c2)cc1 [30-(a)]

Further lines, the compound ahead of its results:

Compound: N=C(N)Nc1ccc(C(=O)Oc2ccc(CNS(=O)(=O)N(CCOCCOCCN([C@@H](CC(=O)O)C(=O)O)S(=O)(=O)NCc3ccc(OC(=O)c4ccc(NC(=N)N)cc4)cc3)[C@@H](CC(=O)O)C(=O)O)cc2)cc1 [2-(c)]
inhibition in vivo at 30 mg/kg (DIO mouse): ≥ 4%
AUC ([3]; 10 mg/kg): ≤ 100 ng·h/mL

Compound: N=C(N)Nc1ccc(C(=O)Oc2ccc(CNS(=O)(=O)N(Cc3cccc(C(=O)NCCOCCOCCOCCOCCNC(=O)c4cccc(CN([C@@H](CC(=O)O)C(=O)O)S(=O)(=O)NCc5ccc(OC(=O)c6ccc(NC(=N)N)cc6)cc5)c4)c3)[C@@H](CC(=O)O)C(=O)O)cc2)cc1 [18-(b), (2S,2′S)-2,2′-((((5,8,11,14-tetraoxa-2,17-diazaoctadecane-1,18-dioyl)bis(3,1-phenylene))bis(methylene))bis(N-(4-((4-guanidinobenzoyl)oxy)benzyl)sulfamoyl)azanediyl))disuccinic acid trifluoroacetate]
inhibition at 0.01 µM [1]: ≥ 50%
inhibition at 0.1 µM [1]: ≥ 50%
inhibition at 0.001 µM [2]: ≥ 50%
inhibition at 0.01 µM [2]: ≥ 50%
inhibition at 0.1 µM [2]: ≥ 50%
inhibition in vivo at 90 mg/kg (DIO mouse; oral 90 mg/kg once daily for 2 weeks): ≥ 4%
AUC ([3]; 9 mg/kg): ≤ 100 ng·h/mL

Compound: Cl.N=C(N)Nc1ccc(C(=O)Oc2ccc(CNS(=O)(=O)N(CCOCCOCCOCCOCCOCCN([C@@H](CC(=O)O)C(=O)O)S(=O)(=O)NCc3ccc(OC(=O)c4ccc(NC(=N)N)cc4)cc3)[C@@H](CC(=O)O)C(=O)O)cc2)cc1 [5-(c), (2S,22S)-3,21-bis(N-(4-((4-guanidinobenzoyl)oxy)benzyl)sulfamoyl)-6,9,12,15,18-pentaoxa-3,21-diazatricosane-1,2,22,23-tetracarboxylic acid hydrochloride]
inhibition in vivo at 100 mg/kg (DIO mouse): ≥ 4%
AUC ([3]; 10 mg/kg): ≤ 100 ng·h/mL

Compound: N=C(N)Nc1ccc(C(=O)Oc2ccc(CNS(=O)(=O)N(CCCCN([C@@H](CC(=O)O)C(=O)O)S(=O)(=O)NCc3ccc(OC(=O)c4ccc(NC(=N)N)cc4)cc3)[C@@H](CC(=O)O)C(=O)O)cc2)cc1 [8-(c), (2S,2′S)-2,2′-(butane-1,4-diylbis((N-(4-((4-guanidinobenzoyl)oxy)benzyl)sulfamoyl)azanediyl))disuccinic acid hydrochloride]
response vs control in vivo at 30 mg/kg (HFD-fed mouse): ≥ 130%

Compound: N=C(N)Nc1ccc(C(=O)Oc2ccc(CNS(=O)(=O)N(CCCCN([C@@H](CC(=O)O)C(=O)O)S(=O)(=O)NCc3ccc(OC(=O)c4ccc(NC(=N)N)cc4)cc3)[C@@H](CC(=O)O)C(=O)O)cc2)cc1 [8-(b), (2S,2′S)-2,2′-(butane-1,4-diylbis((N-(4-((4-guanidinobenzoyl)oxy)benzyl)sulfamoyl)azanediyl))disuccinic acid trifluoroacetate]
inhibition at 0.001 µM [1, 4]: ≥ 50%
inhibition at 0.01 µM [1, 5]: ≥ 50%
inhibition at 0.1 µM [1, 6]: ≥ 50%
inhibition at 0.001 µM [2]: ≥ 50%
inhibition at 0.01 µM [2]: ≥ 50%
inhibition at 0.1 µM [2]: ≥ 50%
inhibition in vivo at 100 mg/kg (DIO mouse): ≥ 4%
AUC ([3]; 10 mg/kg): ≤ 100 ng·h/mL

Compound: Cl.N=C(N)Nc1ccc(C(=O)Oc2ccc(CNS(=O)(=O)N(CCOCCOCCOCCOCCOCCOCCN([C@@H](CC(=O)O)C(=O)O)S(=O)(=O)NCc3ccc(OC(=O)c4ccc(NC(=N)N)cc4)cc3)[C@@H](CC(=O)O)C(=O)O)cc2)cc1 [6-(c), (2S,25S)-3,24-bis(N-(4-((4-guanidinobenzoyl)oxy)benzyl)sulfamoyl)-6,9,12,15,18,21-hexaoxa-3,24-diazahexacosane-1,2,25,26-tetracarboxylic acid hydrochloride]
inhibition in vivo at 100 mg/kg (DIO mouse): ≥ 4%
AUC ([3]; 10 mg/kg): ≤ 100 ng·h/mL
